Experiments:
[1] = xn = mol fraction of the nth substance listed; details: 101 kPa, Liquid
[2] = 101 kPa, Liquid
[3] = refractive index (Na D-line) (dimensionless); details: 298.15 K; 101.33 kPa; Liquid; Standard Abbe refractometry

CCCCCCCC [octane] + c1ccccc1
[1]
Details | mass density [kg/m3]
298.15 K, x1 = 0.06831 | 850.82
298.15 K, x1 = 0.1358 | 831.14
298.15 K, x1 = 0.2041 | 813.51
298.15 K, x1 = 0.2616 | 800.23
298.15 K, x1 = 0.3322 | 785.49
298.15 K, x1 = 0.3912 | 774.33
298.15 K, x1 = 0.4581 | 762.82
298.15 K, x1 = 0.5388 | 750.32
298.15 K, x1 = 0.6054 | 740.95
298.15 K, x1 = 0.664 | 733.37
298.15 K, x1 = 0.7116 | 727.59
298.15 K, x1 = 0.7979 | 717.91
298.15 K, x1 = 0.8682 | 710.7
298.15 K, x1 = 0.9264 | 705.15
298.15 K, x1 = 1 | 698.6
308.15 K, x1 = 0.06734 | 840.85
308.15 K, x1 = 0.1335 | 821.8
308.15 K, x1 = 0.1989 | 804.98
308.15 K, x1 = 0.2562 | 791.81
308.15 K, x1 = 0.3283 | 776.91
308.15 K, x1 = 0.3888 | 765.56
308.15 K, x1 = 0.4682 | 752.18
308.15 K, x1 = 0.5284 | 742.95
308.15 K, x1 = 0.5971 | 733.35
308.15 K, x1 = 0.6592 | 725.32
308.15 K, x1 = 0.7248 | 717.54
308.15 K, x1 = 0.8156 | 707.74
308.15 K, x1 = 0.8852 | 700.86
308.15 K, x1 = 0.9515 | 694.77
308.15 K, x1 = 1 | 690.44
318.15 K, x1 = 0.06734 | 830.41
318.15 K, x1 = 0.1335 | 811.7
318.15 K, x1 = 0.1932 | 796.52
318.15 K, x1 = 0.2511 | 783.28
318.15 K, x1 = 0.3289 | 767.43
318.15 K, x1 = 0.3937 | 755.54
318.15 K, x1 = 0.4681 | 743.19
318.15 K, x1 = 0.5302 | 733.8
318.15 K, x1 = 0.5866 | 726.02
318.15 K, x1 = 0.6709 | 715.36
318.15 K, x1 = 0.7248 | 709.07
318.15 K, x1 = 0.8156 | 699.39
318.15 K, x1 = 0.8852 | 692.61
318.15 K, x1 = 0.9515 | 686.61
318.15 K, x1 = 1 | 682.47
328.15 K, x1 = 0.06734 | 820.09
328.15 K, x1 = 0.1335 | 801.67
328.15 K, x1 = 0.1932 | 786.83
328.15 K, x1 = 0.2511 | 773.79
328.15 K, x1 = 0.3289 | 758.15
328.15 K, x1 = 0.3937 | 746.47
328.15 K, x1 = 0.4681 | 734.35
328.15 K, x1 = 0.5302 | 725.13
328.15 K, x1 = 0.5866 | 717.46
328.15 K, x1 = 0.6709 | 706.93
328.15 K, x1 = 0.7248 | 700.75
328.15 K, x1 = 0.8156 | 691.2
328.15 K, x1 = 0.8852 | 684.52
328.15 K, x1 = 0.9515 | 678.62
328.15 K, x1 = 1 | 674.54

Cc1ccccc1 [toluene]
[2]
Details | mass density [kg/m3]
298.15 K | 862.29
308.15 K | 852.86
318.15 K | 843.6
328.15 K | 834.29

Details | refractive index
[3] | 1.4941

Cc1ccccc1 [toluene] + CCCCCCCC
[1], x2 = 0
Details | mass density [kg/m3]
298.15 K | 862.29
308.15 K | 852.86
318.15 K | 843.6
328.15 K | 834.29

From the NIST ThermoML archive (doi:10.1016/j.jct.2007.10.010)
